Data on ten compounds can be found in patent US20210145795A1 (priority 2018, published 2021).

For data set [1], the system named is USSR H1N1 virus. Briefly: microbe, parasite or virus in culture. The data set is classed as cell-based, influenza A virus.
Data set [2] deals with USSR H1N1 virus. Briefly: microbe, parasite or virus in culture. It counts as cell-based, influenza A virus. This is another data set of the same source.
Data set [3] concerns extracellular Ca^2+ influx. Briefly: Fluo-8 intracellular Ca2+ monitoring assay (NPTr cells; TG also in other cell types). It counts as cell-based, pig.
The test system of data set [4] is USSR H1N1 virus. The data set is classed as cell-based, influenza A virus.
A further data set has as its system viral NP and M1 protein. It counts as cell-based, influenza A virus. To be noted: 0.5 μM TG (NPTr, myoblasts) or 0.005 μM TG (NHBE) 30 min, USSR H1N1, 24 h.
The test system of the next data set is pdm H1N1 virus. It counts as cell-based, influenza A virus.
Data set [5] deals with USSR H1N1 virus. It counts as cell-based, influenza A virus. The source holds these as a separate data set.
The nature of data set [6]: in vitro. To be noted: human.
For data set [7], the system named is RSV (A2 strain, ATCC VR-1540). Briefly: RSV production from primed HEp2 cells (immuno-detection of RSV). It counts as cell-based, human respiratory syncytial virus. On the procedure: (§1) Spun supernatants were collected to infect HEp2 cells for 24 h for immuno-detection of RSV. TG doses used to prime HEp2 cells were non-toxic. 30 min TG treated cells were rinsed, cultured overnight and subjected to cell viability assays (CellTiter-Glo® Luminescent Cell Viability Assay kit, Promega. Results are shown in FIG. 22.
Spun supernatants from infected samples were collected to infect HEp2 cells for 24 h for immuno-detection of RSV.
In further experiments, HEp2 cells were first infected with RSV at 0.1 MOI for 24 or 48 h followed by priming with TG or DMSO control for 30 min. Fresh media were used to replace TG containing media of 24 h infected cells; and supernatants collected earlier from 48 h infected cells were used to replace TG containing media of 48 h infected cells. All samples were infected for total period 72 h. Spun supernatants were collected to infect HEp2 cells for 24 h for RSV immuno-detection. DMSO controls were based on combined control supernatants from 24 and 48 h time points.

The test system of the next data set is DDIT3, HSPA5 and HSP90B1. It counts as cell-based, pig. Conditions: NPTr cells.
The subject of another data set is RIG-I, OAS1 and PKR. It counts as cell-based, pig.
Data set [8] in a line: CellTiter-Glo luminescent cell viability assay, HEp2 cells. It counts as cell-based. Conditions: human, HEp-2 cells. Here is the method: as §1
On the technique in general: ATP-based viability assays read luminescence as a measure of living cells.

The nature of data set [9]: in vitro. Conditions: pig.
A further data set relates to influenza A virus. Conditions: MDCK cells, 0.001 μM TG over 48 h of infection; cited from earlier work.
In another data set the test system is NHBE cells. Conditions: TG concentrations used for priming.
A further data set concerns viral M-gene. The data set is classed as cell-based, influenza A virus. To be noted: NPTr cells.

Entries after “also recorded” stand apart in the source; their conditions may differ. Like-named read-outs stand apart in the source and are kept apart here. Where only a bound is given, the exact number is not on record here.

Take `CC1=C2CC[C@@H](C)[C@H]2[C@H]2[C@@H](CC1)C2(C)C` [(+)-ledene]: the progeny virus output result in the data set on USSR H1N1 virus [1] is “dramatic reduction in progeny virus output; also recorded: reduced progeny virus output”. Moreover, the “USSR H1N1 virus production” value with USSR H1N1 virus [2] is on record as “reduced USSR H1N1 virus production like that of TG”.
Take `Cc1nnsc1C(=O)Nc1ccc(-n2nc(C(F)(F)F)cc2C(F)(F)F)cc1` [BTP2, reference compound]: the progeny virus release result in the data set with USSR H1N1 virus [2] is “small increase in progeny virus release”.
As for `CC(=O)C1=C(O)[C@@H]2[C@H]3c4c[nH]c5cccc(c45)C[C@H]3C(C)(C)N2C1=O` [CPA, Cyclopiazonic acid], the “reduction in ATP production” value in the data set on NPTr cells (5 μM CPA 30 min, 24 h incubation) worked out at 8.3%. The “concentration from which Ca^2+ influx was detected” value in [3] was ≥ 10 µM.
For the compound `COc1ccc(OC)c(-c2ccc(NC(=O)c3ccncc3F)cc2)c1` [Synta66, reference compound], in the data set with USSR H1N1 virus [2], the progeny virus release result is given as “small increase in progeny virus release”.
Regarding `C/C=C(/C)C(=O)O[C@H]1C(C)=C2[C@H]([C@@H]1OC(=O)CCCCCCC)[C@@](C)(OC(C)=O)C[C@H](OC(=O)CCC)[C@@]1(O)[C@H]2OC(=O)[C@@]1(C)O` [TG, thapsigargin], the “cytotoxic effect on cell viability (ATP production, caspase 3/7 activity)” value in the data set with NPTr cells (NPTr cells, TG concentrations used for priming) was “no cytotoxic effect on cell viability”; with NHBE cells, “no cytotoxic effect on cell viability”. Besides, the “duration of the antiviral state” value in the data set on USSR H1N1 virus [4], in the data set with USSR H1N1 virus [5] and in the data set with USSR H1N1 virus [2] was “at least 24 h” throughout. In addition, the “viral NP and M1 protein” value in the data set with viral NP and M1 protein was “no or only small reduction in viral NP and M1 protein”. Moreover, the “virus production, TG before vs after an initial infection period of 6 h” value in the data set with pdm H1N1 virus (NPTr (0.5 μM, pdm H1N1), NHBE (0.01 μM, USSR H1N1), myoblasts (0.5 μM, USSR H1N1), 30 min) is “comparable reduction in virus production”. The virus output result with USSR H1N1 virus [5], with USSR H1N1 virus [1] and in the data set with USSR H1N1 virus [2] was “marked reduction in virus output” in each case. For the same compound, the values for the CC50 (in “in vitro [6]”; in data set [8]; in the data set “in vitro [9]”) were 33.5 µM, 90 µM and 56.6 µM, respectively. Moreover, in [7] (HEp2 cells, 30 min priming), the “duration of sustained anti-viral effect on RSV after priming” value is given as “over 48 h”. In [7] (HEp2 cells, TG 30 min at 48 h post-infection), the “RSV production, priming during infection” value is listed as “rapidly effective in blocking virus production”. Further, in [7] (HEp2 cells, TG at non-toxic levels 30 min before infection, RSV 0.1 MOI 3 days), the RSV production entry is given as “blocks RSV production”. The compound further had a selectivity index in data set [7] (HEp-2 cells, 3 d infection period) of 1346.499. Further, the IC50 in data set [7] (human respiratory syncytial virus, 72 h, HEp-2 cells, 3 d infection period) was 0.0668 µM; in the data set with USSR H1N1 virus [1] (Influenza A virus, H1N1, NHBE, read-out: USSR virus inhibitory concentration [IC50]) it was 0.00391 µM; in the data set with USSR H1N1 virus [2] (Influenza A virus, H1N1, read-out: IC50 (50% reduction of progeny virus)), 0.00712 µM. The “expression of ER stress associated genes (DDIT3, HSPA5 and HSP90B1)” value in the data set on DDIT3, HSPA5 and HSP90B1 (TG at non-toxic levels, porcine myoblasts and NHBE cells, dose-dependent) is listed as “consistently elevated ER stress associated genes”. Besides, in the data set on USSR H1N1 virus [1] (NHBE cells, 5 nM TG for 30 min), the progeny virus output result is listed as “dramatic reduction in progeny virus output”. Besides, the “selectivity index (CC50/IC50)” value with USSR H1N1 virus [1] (NHBE cells, USSR H1N1) is given as 8572.89; in the data set with USSR H1N1 virus [2] (NPTr cells, USSR H1N1) it was 7952.21. Moreover, in [3] (brief TG exposure (10 min), primary porcine myoblasts, PTECs and NHBE cells, dependent on extracellular Ca^2+), the “Ca^2+ influx” value was “modest Ca^2+ influx”. For the same compound, in the data set with RIG-I, OAS1 and PKR (TG priming before or during infection, different cell types), the “expression of type I IFN associated genes (RIG-I, OAS1) in response to infection” value is on record as “consistently increased the expression of type I IFN associated genes”. Further, the “progeny influenza virus output” value in the data set on influenza A virus was “increase progeny influenza virus output”. The virus reduction was found to be 82% in the data set with USSR H1N1 virus [2] (NPTr cells pre-primed with 0.1 μM TG for 30 min) and 93% in the data set with USSR H1N1 virus [2] (NPTr cells pre-primed with 0.5 μM TG for 30 min).
`C[C@@H]1CC[C@H]2[C@@H](C)C(=O)O[C@@H]3O[C@@]4(C)CC[C@@H]1[C@]32OO4` [artemisinin, reference compound]: the progeny viral output entry in the data set on pdm H1N1 virus and in the data set on USSR H1N1 virus [2] was “reduces progeny viral output” in each case. Besides, the “viral M-gene expression” value in the data set with viral M-gene (artemisinin 0.1 μM and 1.0 μM) is “without significant alteration in viral M-gene expression”. Moreover, the “USSR H1N1 virus production” value in the data set on USSR H1N1 virus [2] is reported as “reduced USSR H1N1 virus production like that of TG”.
Take `C=C1C(=O)O[C@@H]2[C@H]3C(C)=CC(=O)C3=C(C)CC[C@@H]12` [dehydroleucodine]: the progeny virus output entry in the data set with USSR H1N1 virus [1] was “reduced progeny virus output”.
As for `CC1=C2[C@H](/C=C(\C)C(=O)O)CC[C@@H](C)[C@H]2CC1` [valerenic acid], the “USSR H1N1 virus production” value in the data set on USSR H1N1 virus [2] is listed as “reduced USSR H1N1 virus production like that of TG”.
For the compound Tunicamycin [reference compound], the cell viability result in the data set on NPTr cells (NPTr cells, tunicamycin 30 min, non-toxic doses) was “did not affect cell viability”. The “virus production relative to correspondingly infected TG primed cells” value turned out to be 2.8 times in the data set with pdm H1N1 virus (NPTr cells, pdm H1N1, tunicamycin primed vs TG 0.5 μM) and 7.5 times with USSR H1N1 virus [2] (NPTr cells, USSR H1N1, tunicamycin primed vs TG 0.5 μM). In addition, the “induction of ER stress associated genes, higher than by TG” value with DDIT3, HSPA5 and HSP90B1 (tunicamycin 1.0 μg/ml vs TG 0.5 μM) was in the range of 3 to 8.2 fold. Moreover, the “Ca^2+ influx” value in data set [3] (tunicamycin at non-toxic doses) is “did not induce Ca^2+ influx”. The “expression of type I IFN associated genes (RIG-I, OAS1 and PKR) in response to infection” value with RIG-I, OAS1 and PKR (NPTr cells, tunicamycin primed) is reported as “little change in the expression of type I IFN associated genes”. In addition, in the data set on viral M-gene (tunicamycin primed), the “viral M-gene expression” value is “without reduction in viral M-gene expression”. Moreover, the virus production result in the data set with USSR H1N1 virus [2] was “only slightly reduced virus production”.
Take dehydroleucodine: the “USSR H1N1 virus production” value in the data set on USSR H1N1 virus [2] was “reduced USSR H1N1 virus production like that of TG”.
